Converted amounts (≈) assume the structure as drawn. Read-outs that look alike come from different tables or passages of the source.
Columns and labels:
[1] = tested on: human MT-4 cells; assay: Cytotoxicity in non-infected MT-4 cells (MTT); assay type: cell-based; conditions: 5 days
Method: (§1) Anti-HIV activity and cytotoxicity were evaluated in human MT-4 cells based on viability of cells that have been infected or not infected with HIV-1 following exposure to various concentrations of the test compound according to the procedure previously described. After proliferation for 5 days the number of viable MT-4 cells was quantified by tetrazolium-based colorimetric method (MTT). The HIV-1 NL4-3 virus used was a molecular clone obtained from the National Institute of Health (Bethesda, USA) that was propagated and tittered in MT-4 cells. All anti-HIV evaluations were done in triplicate in two separate experiments.

[2] = tested on: HIV-1 (NL4-3); assay: Anti-HIV activity in MT-4 cells (MTT viability of infected cells); assay type: cell-based; conditions: for EC50: Human immunodeficiency virus 1, NL43, MT4, 120 h, read-out: EC50 HIV-1 (NL4-3): effective concentration needed to inhibit 50% HIV-induced cell death, 5 days
Method: as §1

[3] = tested on: HIV-1; conditions: human MT4 cells; cited from earlier work
[4] = Cytotoxicity in non-infected MT-4 cells (MTT); assay type: cell-based, human; conditions: human
Method: as §1

[5] = molecular target: electric eel acetylcholinesterase; conditions: cited from earlier work
[6] = molecular target: T1, electric eel acetylcholinesterase (Electrophorus electricus, UniProt O42275); assay: biochemical
T1 construct: purchased Sigma Aldrich Chemie (Stenheim, Germany) type V-S
T1 sequence (O42275 24-633): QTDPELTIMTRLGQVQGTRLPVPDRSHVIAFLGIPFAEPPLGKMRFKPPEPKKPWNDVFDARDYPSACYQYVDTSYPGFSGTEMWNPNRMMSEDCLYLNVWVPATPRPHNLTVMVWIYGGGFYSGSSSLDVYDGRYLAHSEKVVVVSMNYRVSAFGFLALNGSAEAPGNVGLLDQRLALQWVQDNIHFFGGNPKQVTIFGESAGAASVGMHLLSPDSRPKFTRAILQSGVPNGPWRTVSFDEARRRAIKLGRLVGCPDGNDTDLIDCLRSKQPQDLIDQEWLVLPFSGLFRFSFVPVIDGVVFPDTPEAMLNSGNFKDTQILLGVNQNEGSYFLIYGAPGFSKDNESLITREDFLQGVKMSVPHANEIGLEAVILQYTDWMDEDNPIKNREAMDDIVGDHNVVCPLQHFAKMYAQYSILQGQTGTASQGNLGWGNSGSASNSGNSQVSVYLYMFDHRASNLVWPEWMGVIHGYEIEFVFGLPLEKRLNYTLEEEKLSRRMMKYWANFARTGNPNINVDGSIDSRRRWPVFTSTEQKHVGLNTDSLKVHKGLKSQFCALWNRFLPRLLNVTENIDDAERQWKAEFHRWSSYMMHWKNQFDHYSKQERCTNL
Method: The assay for measuring acetylcholinesterase (AChE) inhibitory activity was performed in 96 well microtitre plates as previously described. […] Acetylcholinesterase from Electrophorus electricus L. (electric eel) type V-S lyophilized powder, acetyl-thiocholine iodide (ATCI), and 5,5′-dithio-bis[2-nitrobenzoic acid] (DNTB) were obtained from Sigma Aldrich Chemie (Stenheim, Germany). Fifty microliters of AChE solution (500 U/mL) in phosphate buffer (8 mM K2HPO4, 2.3 mM NaH2PO4, 0.15 M NaCl, 0.05% Tween 20, pH 7.6), and 50 μL of the compound dissolved in the same buffer were added to each of the wells. The plates were incubated for 30 min at room temperature before addition of 100 μL of the substrate solution (0.1 M NaH2PO4, […], 0.6 mM ATCI in Millipore water, pH 7.5). Absorbance was recorded in a Labsystems Microplate Reader (Helsinki, Finland) at 405 nm after 6 min. Enzyme activity was calculated as percentage compared to an assay using a buffer without the tested compound. The AChE inhibitory data were analysed with the Prism software package (Graph Pad Inc., San Diego, USA).

[7] = tested on: human MT4 cells; conditions: cited from earlier work
[8] = in vitro, read-out: EC50, inhibition of electric eel acetylcholinesterase in vitro
[9] = means ± SD of three determinations (10^−8 to 10^−3 M), read-out: EC50 (M), acetylcholinesterase inhibitory activity

In the case of Cc1cn([C@H]2C[C@H](N=[N+]=[N-])[C@@H](CO)O2)c(=O)[nH]c1=O [AZT, reference compound], the “CC50 No virus: concentration needed to induce 50% death of non-infected cells” value [1] is reported as greater than 1 mg/L and the “EC50 HIV-1 (NL4-3): effective concentration needed to inhibit 50% HIV-induced cell death” value ([2]; 5 days) is reported as 0.0007 mg/L (≈ 0.00262 µM).

In the case of COc1cc2c(cc1OC)[C@H]1[C@H]3C(=CC[C@H]1OC2=O)CCN3C [homolycorine], the “therapeutic index TI50” value [3] is given as “even lower therapeutic indices than lycorine”.

For COc1ccc2c3c1O[C@H]1C[C@H](O)C=C[C@@]31CCNC2 [Epinorgalanthamine (6), epinorgalanthamine], the CC50 at 5 days [4] is listed as 13 mg/L (≈ 47.6 µM), the EC50 ([5]; previously reported, read-out: acetylcholinesterase inhibitory properties) is listed as 9.6 µM and the EC50 [2] is listed as greater than 13 mg/L.

COC1C=CC23CCN(C)Cc4ccc(O)c(c42)OC3C1 (centres unmarked) [Chlidanthine (1), chlidanthine] gave a CC50 at 5 days [4] greater than 25 mg/L, an EC50 [6, 8] of 2.4e-05 M and an EC50 [6, 9] of 2.41e-05 M. The EC50 [2] was greater than 25 mg/L.

In the case of COc1ccc2c3c1O[C@H]1C[C@H](O)CC[C@@]31CCNC2 [epinorlycoramine], the “acetylcholinesterase inhibitory activity in words” value [5] is given as “completely lost”.

For CN1CC[C@@]23C=C[C@H](O)C[C@@H]2Oc2c(O)ccc(c23)C1 [sanguinine], the “increase of the AChE inhibitory activity relative to galanthamine” value [5] is listed as roughly 10 fold.

In the case of COc1ccc2c3c1O[C@H]1C[C@@H](O)C=C[C@@]31CC[N+](C)([O-])C2 (some centres unmarked) [Galanthamine N-oxide (3), galanthamine N-oxide], the CC50 at 5 days [4] is reported as greater than 25 mg/L, the EC50 [6, 8] is reported as 2.6e-05 M and the EC50 [6, 9] is reported as 2.62e-05 M. It also gave an EC50 [2] greater than 25 mg/L.

For Cc1ccnc2c1NC(=O)c1cccnc1N2C1CC1 [Nevirapine, reference compound], the CC50 at 5 days [4] was greater than 2 mg/L and the EC50 [2] was 0.034 mg/L (≈ 0.128 µM).

Compound c1cc(CN2CCCNCCNCCCNCC2)ccc1CN1CCCNCCNCCCNCC1 [AMD3100, reference compound] has a CC50 at 5 days [4] greater than 5 mg/L and an EC50 [2] of 0.001 mg/L (≈ 0.00199 µM).

For c1ccc2c(c1)ncc1cc3c(cc12)OCO3 [trisphaeri-dine, trisphaeridine], the “therapeutic index TI50” value [3] is given as “even lower therapeutic indices than lycorine”.

For COc1cc2c(cc1O)[C@@H]1[C@H](OC2=O)[C@@H](OC)[C@@H]2O[C@@]23CCN(C)[C@@H]13 [Galwesine (5), galwesine], the CC50 at 5 days [4] was 71.4 mg/L (≈ 206 µM), the “acetylcholinesterase inhibition in words” value ([6]; at 10^−3 M) was “inactive” and the EC50 [6, 9] was greater than 0.001 M. It also gave an EC50 [2] greater than 71.4 mg/L.

In the case of CO[C@@H]1C=C[C@@]23c4cc5c(cc4CN(C[C@@H]2O)[C@H]3C1)OCO5 [haemanthamine], the “therapeutic index TI50” value [3] is given as “even lower therapeutic indices than lycorine”.

With COc1ccc2c3c1O[C@H]1C[C@@H](O)C=C[C@@]31CCN(C)C2 [Galanthamine (2), galanthamine, reference compound] the CC50 at 5 days [4] was greater than 25 mg/L and the EC50 [2] was greater than 25 mg/L.

In the case of O[C@H]1[C@H]2c3cc4c(cc3CN3CCC(=C[C@@H]1O)[C@H]23)OCO4 [Lycorine (4), lycorine], the CC50 at 5 days [4] is listed as 0.48 mg/L (≈ 1.67 µM), the “acetylcholinesterase inhibitory activity in words” value [5] is listed as “inactive” and the EC50 [2] is listed as greater than 0.5 mg/L. The “anti-HIV-1 activity ID50” value [3] was 0.4 mg/L, the “therapeutic index TI50” value [3] was 1.9 and the “cytotoxicity TC50” value [7] was 0.75 mg/L.

In the case of COc1ccc2c3c1O[C@H]1C[C@@H](O)CC[C@]31CCN(C)C2 [lycoramine], the “acetylcholinesterase inhibitory activity in words” value [5] is given as “completely lost”.
